Reference: patent US9474701B2, “Antimicrobial soaps containing carvacrol and methods of using same” (Hydromer, Inc., priority 2014, dated 2016)

Legend:
[1] = system: gram negative/gram positive bacteria; test: Synergistic effect of soap ingredients with/without Carvacrol; assay type: cell-based; conditions: for Efficacy against gram negative/gram positive bacteria: bacterial growth inhibition, ingredients with/without Carvacrol; for Synergistic effect: synergism with the Carvacrol
Description: Main ingredients of NMP free V100, (2-Phenoxyethanol, Caprylyl glycol and Hexylene Glycol) were analyzed with/without Carvacrol.

[2] = system: gram negative/gram positive bacteria; test: Synergistic effect of soap ingredients with/without Oregano Oil; assay type: cell-based; conditions: for Efficacy against gram negative/gram positive bacteria: inhibition, ingredients with/without Oregano Oil; for Synergistic effect: synergism with Oregano Oil
Description: Main ingredients of NMP free V100, 2-Phenoxyethanol, Caprylyl glycol and Hexylene Glycol were analyzed in the concentrations that they appear in the Hydromer Antiseptic Soap with/without Oregano Oil.

| Molecule | Efficacy against gram negative/gram positive bacteria [1] | Efficacy against gram negative/gram positive bacteria [2] | Synergistic effect [2] | Synergistic effect [1] |
| --- | --- | --- | --- | --- |
| Cc1ccc(C(C)C)cc1O [0.2% Carvacrol, Carvacrol] | NO Inhibition | – | – | – |
| CCCCCCC(O)CO (centres unmarked) [0.02% Caprylyl Glycol, Caprylyl Glycol] | NO Inhibition | NO Inhibition | act synergistically | act synergistically |
| OCCOc1ccccc1 [0.035% 2-Phenoxyethanol, 2-Phenoxyethanol] | NO Inhibition | NO Inhibition | act synergistically | act synergistically |
| Hexylene Glycol [0.008% Hexylene Glycol] | NO Inhibition | NO Inhibition | – | – |
